System: AR
Assay: In Vitro AR Agonism Assay (LNAR reporter cell line)
Format: cell-based
Settings: for Relative Maximum Response to Mifepristone: LNAR reporter cells, RPMI + 10% CSS, 18-24 hrs, maximum response of Mifepristone set to 1
Protocol: In Vitro AR Agonism Assay
The AR agonism assay was done in the LNAR reporter cell line which has overexpressed AR and 4×ARE-Luc genes. This cell line is sensitive to even minor partial AR agonism activity in hormone-deprived media (CSS). The assays were done in RPMI (without phenol red)+10% CSS using 6000 LNAR cells/well in 384-well plates and compounds were incubated with cells in […] incubator for 18-24 hrs. OneGlo reagent (25 uL/well) was added and plates were read with luminometer within 3 minutes.
To gauge the AR partial agonism activity, Mifepristone is included as a standard in the assay. AR agonism assay results are quantified by determining the ratio of the maximum response of individual compounds to the maximum response of Mifepristone (arbitrarily set to 1). Values of Table 4 are reported as Relative Maximum Response to Mifepristone. This general trend of AR agonism was shown for the class of compounds described herein.

Structure (SMILES)	Relative Maximum Response to Mifepristone	partial AR agonism (in concentrations as low as 10 nM)
CC#C[C@]1(O)CC[C@H]2[C@@H]3CCC4=CC(=O)CC[C@@H]4[C@H]3[C@@H](c3ccc(N(C)C)cc3)C[C@@]21C [Compound 3]	B (B: >0.4)	–
COc1ccc([C@H]2C[C@@]3(C)[C@@H](CC[C@@]3(O)C#CC3CC3)[C@@H]3CCC4=CC(=O)CC[C@]4(C)C23)cc1 (stereo partly drawn) [Compound 6]	A (A: ≤0.4)	–
CN(C)c1ccc([C@H]2C[C@@]3(C)[C@@H](CC[C@@]3(O)C#CC(C)(C)C)[C@@H]3CCC4=CC(=O)CC[C@@H]4[C@H]32)cc1 [Compound 7, (8R,9S,10R,11S,13S,14S,17S)-11-(4-(dimethylamino)phenyl)-17-(3,3-dimethylbut-1-yn-1-yl)-17-hydroxy-13-methyl-1,2,6,7,8,9,10,11,12,13,14,15,16,17-tetradecahydro-3H-cyclopenta[a]phenanthren-3-one]	A (A: ≤0.4)	–
COC(C)(C)C#C[C@]1(O)CC[C@H]2[C@@H]3CCC4=CC(=O)CC[C@@H]4[C@H]3[C@@H](c3ccc(N(C)C)cc3)C[C@@]21C [Compound 10, (8R,9S,10R,11S,13S,14S,17S)-11-(4-(Dimethylamino)phenyl)-17-hydroxy-17-(3-methoxy-3-methylbut-1-yn-1-yl)-13-methyl-1,2,6,7,8,9,10,11,12,13,14,15,16,17-tetradecahydro-3H-cyclopenta[a]phenanthren-3-one]	A (A: ≤0.4)	–
CC(C)C#C[C@]1(O)CC[C@H]2[C@@H]3CCC4=CC(=O)CC[C@]4(C)C3[C@@H](c3ccc(N(C)C)cc3)C[C@@]21C (stereo partly drawn) [Compound 13, (8S,10R,11S,13S,14S,17S)-11-(4-(Dimethylamino)phenyl)-17-hydroxy-10,13-dimethyl-17-(3-methylbut-1-yn-1-yl)-1,2,6,7,8,9,10,11,12,13,14,15,16,17-tetradecahydro-3H-cyclopenta[a]phenanthren-3-one]	A (A: ≤0.4)	–
CC#C[C@]1(O)CC[C@H]2[C@@H]3CCC4=CC(=O)CCC4=C3[C@@H](c3ccc(N(C)C)cc3)C[C@@]21C [Mifepristone, reference compound]	–	strong partial AR agonism

— patent US11208432B2, “Inhibitors of glucocorticoid receptor” (ORIC Pharmaceuticals, Inc., priority 2015, dated 2021)
